Measurements as given in ChEMBL document CHEMBL1145709, “Seven New Polyacetylene Derivatives, Showing Both Potent Metamorphosis-Inducing Activity in Ascidian Larvae and Antifouling Activity Against Barnacle Larvae, from the Marine Sponge Callyspongia truncata” (1997).
Values after ≈ are worked out from the molar mass of the structure shown.

Tests used:
[1] = tested on: Amphibalanus amphitrite; assay: Antifouling activity against Balanus amphitrite larvae; assay type: functional; settings: for EC50: Amphibalanus amphitrite, read-out: ED50 (the source's name)
[2] = tested on: Halocynthia roretzi; assay: Induction of metamorphosis in ascidian Halocynthia roretzi; assay type: functional; settings: for EC50: Halocynthia roretzi, read-out: ED50 (the source's name)

## C#CC#CCCCC#CC#C/C=C\CCCC/C=C\C#C [CALLYPENTAYNE]
[1]
  EC50: 0.25 mg/L (≈ 0.918 µM)

## C#C/C=C\CCCC/C=C\C#CC#CCCCC#CC#C[C@H](COS(=O)(=O)[O-])OS(=O)(=O)[O-].[Na+].[Na+] [CALLYSPONGIN A]
[1]
  EC50: 0.13 mg/L
[2]
  EC50: 3.9 mg/L

## C#C/C=C\CCCC/C=C\C#CC#CCCCC#CC#C[C@@H](O)COS(=O)(=O)[O-].[Na+] [CALLYSPONGIN B]
[1]
  ED100: 0.25 µg/mL
[2]
  ED100: 4.1 µg/mL

## C#C/C=C\CCCC#CC#CCCCCCC/C=C\C#C [CALLYTETRAYNE]
[1]
  EC50: 0.25 mg/L (≈ 0.904 µM)
[2]
  EC50: 30 mg/L (≈ 109 µM)

## C#C/C=C\CCCC/C=C\C#CC#CC(O)CCC#CC#CC(O)CO (centres undefined) [CALLYTRIOL A]
[1]
  EC50: 1.3 mg/L (≈ 3.73 µM)
[2]
  EC50: 0.43 mg/L (≈ 1.23 µM)

## C#C/C=C\CCCC(O)/C=C\C#CC#CCCCC#CC#CC(O)CO (centres undefined) [CALLYTRIOL B]
[1]
  EC50: 1.3 mg/L (≈ 3.73 µM)
[2]
  EC50: 0.63 mg/L (≈ 1.81 µM)

## C#C/C=C\C(O)CCC/C=C\C#CC#CCCCC#CC#CC(O)CO (centres undefined) [CALLYTRIOL C]
[1]
  EC50: 0.13 mg/L (≈ 0.373 µM)
[2]
  EC50: 0.24 mg/L (≈ 0.689 µM)

## C#C/C=C/C(O)CCC/C=C\C#CC#CCCCC#CC#CC(O)CO (centres undefined) [CALLYTRIOL D]
[1]
  EC50: 1.3 mg/L (≈ 3.73 µM)
[2]
  EC50: 0.38 mg/L (≈ 1.09 µM)

## C#C/C=C\CCCC(O)/C=C/C#CC#CCCCC#CC#CC(O)CO (centres undefined) [CALLYTRIOL E]
[1]
  EC50: 0.13 mg/L (≈ 0.373 µM)
[2]
  EC50: 0.63 mg/L (≈ 1.81 µM)

## C#C/C=C\CCCC/C=C\C#CC#CCCCC#CC#C[C@@H](O)CO [SIPHONODIOL]
[1]
  EC50: 0.25 mg/L (≈ 0.752 µM)
[2]
  EC50: 4.5 mg/L (≈ 13.5 µM)
